According to patent US4900727A, “4H-1-benzopyran-4-one compounds which have anti-inflamatory or immunodulating action” (Hoechst Aktiengesellschaft, priority 1986, dated 1990):
Counter-ions that a name gives are not always drawn. Like-named read-outs stand apart in the source and are kept apart here.

Key:
[1] = test system: carrageenin-induced paw edema in rats; experiment: Systemic anti-inflammatory action on carrageenin-induced paw edema in rats; assay type: in vivo, male Charles Foster rats; details: decrease in paw volume, 3 and 6 hours after carrageenin, from dose/response curve
Procedure: Male Charles Foster rats (120-150 g) were fasted for 18 hours, with water ad libitum. The test compound dissolved in distilled water was administered orally. The control group received distilled water. 0/05 ml of 0.5% carrageenin suspension was injected subcutaneously into the plantar region of the left hind paw. Using a Maclab differential volume meter, the paw volume was determined before the carrageenin injection and 3 and 6 hours after the injection. The percentage decrease in paw volume was calculated by the following equation: [formula] The ED50 value was calculated from the dose/response curve. Six animals were used for each group. The results with representative compounds according to the invention and their salts are listed in Table 4, the substituents relating to the following formula Ia: [drawing 11]

[2] = test system: reverse passive Arthus reaction (RPA) in rats; experiment: Reverse passive Arthus reaction (RPA) in rats; assay type: in vivo, Charles Foster rats of both sexes; details: one hour before RPA, edema vs untreated control; for % inhibition: hydrochloride
Procedure: Charles Foster rats of both sexes, weighing 150-180 g, were sorted into groups of six animals each. 24 hours before the initiation of the RPA, the rats were shaved from the mid-dorsal region and fasted overnight. The test compounds were administered orally one hour before inducing the Arthus reaction. The RPA reaction was induced by intradermal injection of 0.1 ml of appropriately diluted rabbit anti-BSA serum. Immediately after the intradermal exposure, each rat received 0.5 ml of 0.4% bovine serum albumin intraveneously. Four hours after the intradermal challenge, each group of animals was killed by cervical dislocation. The full thickness of the skin was removed from the back of each animal, and a 12 mm diameter disk was punched out with a metal punch from the site of the antiserum injection. The wet weight of each skin site was determined as soon as possible. The edema caused by the RPA was measured as the difference (expressed in mg) between the wet weight of the site injected with antibody and that injected with normal rabbit serum. The results are expressed as the percentage inhibition or potentiation of the edema by the compound as compared with the edema induced in the untreated control animals.

[3] = Rattus norvegicus, po, read-out: ED50
[4] = Rattus norvegicus, po, 4 h, dose 1.25 mg/kg p.o.
[5] = Rattus norvegicus, po, 4 h, dose 2.5 mg/kg p.o.
[6] = Rattus norvegicus, po, 4 h, dose 5.0 mg/kg p.o.
[7] = Rattus norvegicus, po, 4 h, dose 10.0 mg/kg p.o.
[8] = Rattus norvegicus, po, 4 h, dose 20.0 mg/kg p.o.

Structure (SMILES)	ED50 [1, 3]	inhibition in vivo at 1.25 mg/kg [2, 4]	inhibition in vivo at 2.5 mg/kg [2, 5]	inhibition in vivo at 5 mg/kg [2, 6]	inhibition in vivo at 10 mg/kg [2, 7]	inhibition in vivo at 20 mg/kg [2, 8]	other results
CCc1cc(=O)c2c(O)cc(O)c(C3CCN(C)CC3O)c2o1 (mixture of isomers) [(±) C2 H5 H CH3 HCl.1.5 H2 O, cis-5,7-Dihydroxy-2-ethyl-8-[4'-(3'-hydroxy-1'-methyl)-piperidinyl]-4H-1-benzopyran-4-one hydrochloride]	10.5 mg/kg	16%	34.3%	41.6%	43.6%	77.1%	
CCCc1cc(=O)c2c(O)cc(O)c(C3CCN(C)CC3O)c2o1 (mixture of isomers) [(±) n-C3 H7 H CH3 HCl.H2 O, cis-5,7-Dihydroxy-2-n-propyl-8-[4'-(3'-hydroxy-1'-methyl)-piperidinyl]-4H-1-benzopyran-4-one hydrochloride]	6.8 mg/kg	26%	32%	44%	55%	65%	
CN1CC[C@H](c2c(O)cc(O)c3c(=O)cc(-c4ccc(N)cc4)oc23)[C@H](O)C1 (racemic) [(±) 4-Aminophenyl H H 2HCl, 2 H2 O, cis-(±)-2-(4-aminophenyl)-5,7-dihydroxy-8-[4'-(3'-hydroxy-1'-methyl)-piperidinyl]-4H-1-benzopyran-4-one]							ED50 ([1]; p.o.): 7.4 mg/kg
CN1CC[C@H](c2c(O)cc(O)c3c(=O)cc(-c4ccc(Cl)cc4)oc23)[C@H](O)C1 (racemic) [(±) 4-chlorophenyl H H HCl, 1.5 H2 O, cis-(±)-2-(4-chlorophenyl)-5,7-dihydroxy-8-[4'-(3'-hydroxy-1'-methyl)-piperidinyl]-4H-1-benzopyran-4-one]							ED50 ([1]; p.o.): 7.0 mg/kg
CN1CC[C@H](c2c(O)cc(O)c3c(=O)cc(-c4ccccn4)oc23)[C@H](O)C1 (relative stereo) [(±) 2-Pyridyl H CH3 HCl.1.5 H2 O, cis-(±)-5,7-dihydroxy-2-(2-pyridyl)-8-[4'-(3'-hydroxy-1'-methyl)-piperidinyl]-4H-1-benzopyran-4-one]	5.7 mg/kg	0%	12%	43%	90%	90%	
Cc1cc(=O)c2c(O)cc(O)c([C@H]3CCN(C)C[C@H]3O)c2o1 (relative stereo) [(±) CH3 H CH3 HCl, cis-5,7-Dihydroxy-2-methyl-8-[4'-(3'-hydroxy-1'-methyl)-piperidinyl]-4H-1-benzopyran-4-one hydrochloride]	12.5 mg/kg	28.8%	31.8%	29.8%	35.8%	39.2%	
CN1CC[C@H](c2c(O)cc(O)c3c(=O)cc(-c4ccccc4)oc23)[C@H](O)C1 (relative stereo) [(±) Phenyl H CH3 HCl.2H2 O, cis-(±)-5,7-dihydroxy-2-phenyl-8-[4'-(3'-hydroxy-1'-methyl)-piperidinyl]-4H-1-benzopyran-4-one]	5.7 mg/kg	57.5%	55.6%	68.1%	90.6%	95.7%	
CN1CC[C@H](c2c(O)cc(O)c3c(=O)cc(-c4ccccc4Cl)oc23)[C@H](O)C1 (relative stereo) [(±) o-Chlorophenyl H CH3 HCl.H2 O, cis-(±)-2-(2-chlorophenyl)-5,7-dihydroxy-8-[4'-3'-hydroxy-1'-methyl)-piperidinyl]-4H-benzopyran-4-one]	2.7 mg/kg						inhibition in vivo at 1 mg/kg ([2]; Rattus norvegicus, po, 4 h, dose 1.0 mg/kg p.o.): 37%; inhibition in vivo at 2 mg/kg ([2]; Rattus norvegicus, po, 4 h, dose 2.0 mg/kg p.o.): 60%; inhibition in vivo at 4 mg/kg ([2]; Rattus norvegicus, po, 4 h, dose 4.0 mg/kg p.o.): 80%
CN1CC[C@H](c2c(O)cc(O)c3c(=O)cc(-c4ccccc4F)oc23)[C@H](O)C1 (relative stereo) [(±) o-Fluorophenyl H CH3 HCl.2H2 O, cis-(±)-5,7-dihydroxyl-2-(2-fluorophenyl)-8-[4'-(3'-hydroxy-1'-methyl)-piperidinyl]-4H-1-benzopyran-4-one]	7.6 mg/kg	0%	11.5%	52.7%			
CN1CC[C@H](c2c(O)cc(O)c3c(=O)cc(-c4ccc(F)cc4)oc23)[C@H](O)C1 (relative stereo) [(±) p-Fluorophenyl H CH3 HCl.H2 O, cis-(±)-5,7-dihydroxy-2-(4-fluorophenyl)-8-[4'-(3'-hydroxy-1'-methyl)-piperidinyl]-4H-1-benzopyran-4-one]	7.4 mg/kg	24.4%	37.4%	61.5%	90%	86.2%	
CN1CC[C@H](c2c(O)cc(O)c3c(=O)cc(-c4ccc(Cl)cc4Cl)oc23)[C@H](O)C1 (relative stereo) [cis-(±)-2-(2,4-dichlorophenyl)-5,7-dihydroxy-8-[4'-(3'-hydroxy-1'-methyl)-piperidinyl]-4H-1-benzopyran-4-one]	5.7 mg/kg	0%	41.7%	57.2%	49.5%	76.1%	
Cc1cc(=O)c2c(O)cc(O)c([C@H]3CCN(C)C[C@H]3O)c2o1 (single isomer, unassigned) [(+) CH3 H CH3 HCl, (+)-cis-5,7-Dihydroxy-2-methyl-8-[4'-(3'-hydroxy-1'-methyl)-piperidinyl]-4H-1-benzopyran-4-one hydrochloride]	9.4 mg/kg	40.5%	48.8%	57.1%	50.4%		% inhibition ([2]; dose 20.0 mg/kg p.o., 20 mg/kg): 43.24%
CN1CC[C@H](c2c(O)cc(O)c3c(=O)cc(-c4ccccc4Cl)oc23)[C@H](O)C1 (single isomer, unassigned) [(-) 2-Chlorophenyl H CH3 HCl.1,5 H2 O, cis-(-)-2-(2-chlorophenyl)-5,7-dihydroxy-8-[4'-(3'-hydroxy-1'-methyl)-piperidinyl]-4H-1-benzopyran-4-one]	2.4 mg/kg	34%	48.8%	70%	98.8%		
Cc1cc(=O)c2c(O)cc(O)c([C@H]3CCN(C)C[C@H]3O)c2o1 (single isomer, unassigned) [(-) CH3 H CH3 HCl, (-)-cis-5,7-Dihydroxy-2-methyl-8-[4'-(3'-hydroxy-1'-methyl)-piperidinyl]-4H-1-benzopyran-4-one hydrochloride]							ED50 ([1]; p.o., hydrochloride): 9.0 mg/kg; % inhibition ([2]; dose 1.25 mg/kg p.o., 1.25 mg/kg): 40.31%; % inhibition ([2]; dose 2.5 mg/kg p.o., 2.5 mg/kg): 39.11%; % inhibition ([2]; dose 5.0 mg/kg p.o., 5 mg/kg): 40.13%; % inhibition ([2]; dose 10.0 mg/kg p.o., 10 mg/kg): 45.17%; % inhibition ([2]; dose 20.0 mg/kg p.o., 20 mg/kg): 64.73%
CN1CC[C@H](c2c(O)cc(O)c3c(=O)cc(-c4ccccc4)oc23)[C@H](O)C1 (single isomer, unassigned) [(-) Phenyl H CH3 HCl.1/2H2 O, cis-(-)-5,7-dihydroxy-2-phenyl-8-[4'-(3'-hydroxy-1'-methyl)-piperidinyl]-4H-1-benzopyran-4-one]	1.3 mg/kg		26.2%	64.5%	92.2%		
Cc1cc(=O)c2c(O)cc(O)c(C3CCN(CC4CC4)CC3O)c2o1 (single isomer, unassigned; (-)) [(-) CH3 H [drawing 12] HCl.H2 O, cis-(-)-5,7-Dihydroxy-2-methyl-8-[4'-(1'-cyclopropylmethyl-3'-hydroxy)-piperidinyl]-4H-1-benzopyran-4-one hydrochloride]	10 mg/kg		23%	49.7%		74%	
